For 29 substances, IC50 results are on record in patent publication US6271342A, “Sugar-modified cytostatics” (Bayer Aktiengesellschaft, priority 1995, dated 2001).

Test [1] concerns SW 480. Briefly: Growth inhibition test (MTT) for cytotoxic properties. Particulars: Table 1a, glycoconjugates of batracyline. The class given is cell-based, human. As for the experimental part:
(§1) Growth Inhibition Test for Determination of the Cytotoxic Properties of Glycoconjugates of Batracyline and of Quinolone-a
(§2) The human colon cell lines SW 480 and HT 29 (ATCC no. CCL 228 and HBT-38) and the mouse melanoma cell line B 16 F 10 were cultured in Roux dishes in RPMI 1640 medium with addition of 10% FCS. The cultures were then trypsinized and taken up in RPMI plus 10% FCS to a cell count of 50,000 cells/ml. 100 μl of cell suspension/well were introduced into a 96 microwell plate and incubated for 1 day at 37° C. in a CO2 incubating cabinet. A further 100 μl of RPMI medium and 1 μl of dimethyl sulphoxide with the test substances were then added. The growth was checked after day 3 and day 6. 40 μl of MTT solution (3-(4,5-dimethylthiazol-2-yl)-2,5-diphenyltetrazoline bromide) with an initial concentration of 5 mg/ml of H2 O were added to each microwave. The plate was incubated for 5 hours in a CO2 incubating cabinet at 37° C. The medium was then sucked off and 100 μl of i-propanol/well were added. After shaking for 30 minutes with 100 μl of H2 O, the extinction was measured at 540 nm with a Titertek Multiskan MCC/340 (Flow).
(§3) The cytotoxic action of the glycoconjugates of batracyline described is shown in Table 1a as the IC50 value in each case for the SW 480 and HT 29 cell lines.

Test [2] concerns HT 29. The description is as above. Format: cell-based, human. The note with it: Table 1a, glycoconjugates of batracyline. On the procedure: as §1, §2, §3

On to “N-{N^α -[O-(3,4-Di-O-methyl-β-D-galactopyranosyl)-4-hydroxy-phenylamino-thio carbonyl]-N^ε -[O-(3-O-(piperidyl-N)-carbonylmethyl-β-D-galactopyranosyl)-4-hydroxy -phenylamino-thiocarbonyl]-lysyl-D-alanyl}-batracyline [Example 5.15]”, for which the results for the IC50 in test [1] and in test [2] were more than 250 µM and 70 µM, respectively.

In the case of “N-{N^α -[O-(3,4-Di-O-methyl-β-D-galactopyranosyl)-4-hydroxy-phenylamino-thio carbonyl]-N^ε -[O-(3-O-carbamoylmethyl-β-D-galactopyranosyl)-4-hydroxy-phenylamino- thiocarbonyl]-lysyl-D-alanyl}-batracyline [Example 5.21]”, the IC50 (commonly the midpoint of a concentration-inhibition curve) amounted to 60 µM in test [1] and 80 µM in test [2].

Take “N-{N^α -[O-(3-O-Carbamoylmethyl-β-D-galactopyranosyl)-4-hydroxy-phenylamino- thiocarbonyl]-N^ε -[O-(3-O-carboxymethyl-β-D-galactopyranosyl)-4-hydroxy-phenylamino-th iocarbonyl]-lysyl-D-alanyl}-batracyline, sodium salt [Example 5.20]”: the IC50 in test [1] worked out at 50 µM; in test [2], 30 µM.

As for “N-{N^α -[O-(3-O-Carboxymethyl-β-D-galactopyranosyl)-4-hydroxy-phenylamino-th iocarbonyl]-N^ε -[O-(3,4-di-O-methyl-β-D-galactopyranosyl)-4-hydroxy-phenylamino-thio carbonyl]-lysyl-D-alanyl}-batracyline [Example 5.14]”, the values for the concentration for half-maximal inhibition (IC50) in test [1] and in test [2] were 20 µM and 30 µM, respectively.

Turning to “N-{N^α -[O-(3-O-Carboxymethyl-β-D-galactopyranosyl)-4-hydroxy-phenylamino-th iocarbonyl]-N^ε -[O-(3-O-carbamoylmethyl-β-D-galactopyranosyl)-4-hydroxy-phenylamino- thiocarbonyl]-lysyl-D-alanyl}-batracyline, sodium salt [Example 5.23]”, the 50% inhibitory concentration (IC50) was 25 µM in test [1] and 35 µM in test [2].

Turning to “N-{N^α -[O-(3-O-Carboxymethyl-β-D-galactopyranosyl)-4-hydroxy-phenylamino-th iocarbonyl]-lysyl-D-alanyl}-batracyline, sodium salt [Example 4.9]”, the IC50 in test [1] came to 20 µM; in test [2] it was 30 µM.

In the case of “N-{N^α -[O-(3-O-Methoxycarbonylmethyl-[-D-galactopyranosyl)-4-hydroxy-phenylamino -thiocarbonyl]-lysyl-D-alanyl}-batracyline [Example 4.8]”, the IC50 in test [1] came out at 50 µM; in test [2], 40 µM.

On to “N-{N^α -[O-(3-O-Methoxycarbonylmethyl-β-D-galactopyranosyl)-4-hydroxy-phenyl amino-thiocarbonyl]-N^ε -[O-(3-O-carbamoylmethyl-β-D-galactopyranosyl)-4-hydroxy-phenylamino- thiocarbonyl]-lysyl-D-alanyl}-batracyline [Example 5.22]”, for which the results for the IC50 in test [1] and in test [2] were 30 µM and 40 µM, respectively.

For the substance “N-{N^α -[O-(3-O-Methoxycarbonylmethyl-β-D-galactopyranosyl)-4-hydroxy-phenyl amino-thiocarbonyl]-N^ε -[O-(3-O-carboxymethyl-β-D-galactopyranosyl)-4-hydroxy-phenylamino-th iocarbonyl]-lysyl-D-alanyl}-batracyline, sodium salt [Example 5.19]”, the IC50 stood at 35 µM in test [1] and 25 µM in test [2].

In the case of “N-{N^α -[O-(3-O-Methoxycarbonylmethyl-β-D-galactopyranosyl)-4-hydroxyphenyla mino-thiocarbonyl]-N^ε -[O-(3,4-di-O-methyl-β-D-galactopyranosyl)-4-hydroxy-phenylamino-thio carbonyl]-lysyl-D-alanyl}-batracyline [Example 5.12]”, the IC50 in test [1] and in test [2] was 20 µM throughout.

Turning to “N-{N^α -[O-(3-O-Methyl-α-D-mannopyranosyl)-4-hydroxy-phenylamino-thiocarbon yl]-lysyl-D-alanyl}-batracyline [Example 4.12]”, the IC50 in test [1] worked out at 15 µM; in test [2], 9 µM.

Turning to “N-{N^α -[O-(3-O-Methyl-β-D-galactopyranosyl)-4-hydroxy-phenylamino-thiocarbo nyl]-lysyl-D-alanyl}-batracyline [Example 4.7]”, the IC50 in test [1] and in test [2] was 15 µM throughout.

With “N-{N^α -[O-(3-O-Methyl-β-L-fucosyl)-4-hydroxy-phenylamino-thiocarbonyl]-lysy l-D-alanyl}-batracyline [Example 4.3]”, the IC50 in test [1] and in test [2] was 20 µM each time.

Regarding “N-{N^α -[O-(3-O-Methyl-β-L-fucosyl)-4-hydroxyphenylamino-thiocarbonyl]-N. sup.ε -[4-hydroxyethylamino-2-[O-(3-O-methyl-β-L-fucosyl)-4-hydroxyphenylam ino]triazin-6-yl]]-lysyl-D-alanyl}-batracyline [Example 5.8]”, the IC50 in test [1] is 100 µM; in test [2], more than 250 µM.

Take “N-{N^α -[O-(3-O-Methyl-β-L-fucosyl)-4-hydroxyphenylamino-thiocarbonyl]-N. sup.ε -[O-(3-O-carboxymethyl-β-L-fucosyl)-4-hydroxyphenylamino-thiocarbonyl ]-lysyl-D-alanyl}-batracyline [Example 5.2]”: the IC50 in test [1] turned out to be 20 µM; in test [2], 55 µM.

Consider “N-{N^α -[O-(β-D-Galactopyranosyl)-4-hydroxy-phenylamino-thiocarbonyl]-lysyl- D-alanyl}-batracyline [Example 4.6]”, for which the IC50 in test [1] and in test [2] was 10 µM throughout.

On to “N-{N^α,N^ε -Bis-10-(3-O-carbamoylmethyl-β-D-galactopyranosyl)-4-hydroxy-phenylam ino-thiocarbonyl]-lysyl-glycyl}-batracyline [Example 6.60]”, for which the IC50 in test [1] was 50 µM; in test [2], 40 µM.

As to “N-{N^α,N^ε -Bis-[O-(2-hydroxyethyl-β-L-fucosyl)-4-hydroxy-phenylamino-thiocarbon yl]-lysyl-D-alanyl}-batracyline [Example 6.10]”, the IC50 in test [1] and in test [2] was 50 µM in each case.

With “N-{N^α,N^ε -Bis-[O-(3,4-di-O-methyl-β-D-galactopyranosyl)-4-hydroxy-phenylamino- thiocarbonyl]-lysyl-D-seryl}-batracyline [Example 6.40]”, the concentration for half-maximal inhibition (IC50) in test [1] stood at 170 µM; in test [2], 60 µM.

“N-{N^α,N^ε -Bis-[O-(3,4-di-O-methyl-β-D-galactopyranosyl)-4-hydroxy-phenylamino- thiocarbonyl]-lysyl-seryl}-batracyline [Example 6.32]”: the IC50 in test [1] and in test [2] was 60 µM in each case.

In the case of “N-{N^α,N^ε -Bis-[O-(3-O-carbamoylmethyl-β-D-galactopyranosyl)-4-hydroxy-phenylam ino-thiocarbonyl]-lysyl-D-seryl}-batracyline [Example 6.43]”, the IC50 turned out to be 90 µM in test [1] and 80 µM in test [2].

With “N-{N^α,N^ε -Bis-[O-(3-O-carboxymethyl-β-D-galactopyranosyl)-4-hydroxy-phenylamin o-thiocarbonyl]-lysyl-D-asparagyl}-batracyline, di-sodium salt [Example 6.46]”, the IC50 was determined as 120 µM in test [1] and 100 µM in test [2].

As to “N-{N^α,N^ε -Bis-[O-(3-O-carboxymethyl-β-D-galactopyranosyl)-4-hydroxy-phenylamin o-thiocarbonyl]-lysyl-glycyl}-batracyline, di-sodium salt [Example 6.59]”, the IC50 in test [1] and in test [2] was 50 µM throughout.

Consider “N-{N^α,N^ε -Bis-[O-(3-O-carboxymethyl-β-L-fucosyl)-4-hydroxy-phenylamino-thiocar bonyl]-lysyl}-batracyline [Example 6.25]”, for which the figures for the IC50 in test [1] and in test [2] were 50 µM and 40 µM, respectively.

For the substance “N-{N^α,N^ε -Bis-[O-(3-O-methoxycarbonylmethyl-β-D-galactopyranosyl)-4-hydroxy-ph enylamino-thiocarbonyl]-lysyl-D-alanyl}-batracyline [Example 6.80]”, the IC50 in test [1] is 40 µM; in test [2], 25 µM.

Take “N-{N^α,N^ε -Bis-[O-(3-O-methyl-α-D-mannopyranosyl)-4-hydroxy-phenylamino-thioca rbonyl]-lysyl-seryl}-batracyline [Example 6.36]”: the IC50 in test [1] and in test [2] was 70 µM each time.

As to “N-{N^α,N^ε -Bis-[O-(3-O-methyl-β-D-galactopyranosyl)-4-hydroxy-phenylamino-thioc arbonyl]-lysyl-seryl}-batracyline [Example 6.30]”, the half-maximal inhibitory concentration (IC50) in test [1] is 60 µM; in test [2], 70 µM.

Take “N-{N^α,N^ε -Bis-[O-(3-O-methyl-β-L-fucosyl)-4-hydroxy-phenylamino-thiocarbonyl]- lysyl-D-seryl}-batracyline [Example 6.23]”: the IC50 was determined as 107 µM in test [1] and 45 µM in test [2].

As for “N-{N^α,N^ε -Bis-[O-(3-O-n-propyl-β-L-fucosyl)-4-hydroxy-phenylamino-thiocarbonyl ]lysyl-D-alanyl}-batracyline [Example 6.7]”, the concentration for half-maximal inhibition (IC50) was 60 µM in test [1] and more than 250 µM in test [2].
